Patent publication US20060159777A1, “Aqueous acaricidal solution” (SOLVAY (SOCIETE ANONYME), priority 2002, published 2006)
Read-outs that look alike come from different tables or passages of the source.

Experiments:
[1] = system: dermatophagoides pteronyssinus; details: approximately 200 acarids deposited
Procedure: The procedure was carried out as in example 1, except that the acaricidal aqueous solution was not applied by sprinkling, but the pieces of standard cotton wool (150 g/m^2) were immersed in baths of sodium bicarbonate solution.
Three sodium bicarbonate concentrations were used: 10, 30 and 50 g/l.
After drying of the textiles, approximately 200 acarids of all stages were deposited thereon and the acarid mortality was measured as a function of time.
The acarid mortality was noted after 3 and 6 weeks.
Each experimental series was also repeated three times and the means of the mortality results obtained were taken.

[2] = system: dermatophagoides pteronyssinus
Procedure: Acarids (dermatophagoides pteronyssinus) originating from a laboratory strain raised on a substrate consisting of a 50/50 (mass/mass) mixture of wheatgerm and of brewer's yeast as flakes calibrated by sieving (fragments of less than 1 mm in size) were used. The temperature was between 23 and 25° C. and the relative humidity was maintained at 75% by placing in the presence of a saturated aqueous ammonium sulphate solution ([NH4)2SO4]); the strain was conserved in the dark.
Pieces of standard cotton wool (150 g/m^2) were pre-infested with approximately 200 acarids of all stages.
The pieces of cotton wool were then treated by sprinkling with an aqueous solution obtained by mixing 10, 30 or 50 g/l of sodium bicarbonate into water.
Two rates of application of the solution were used: 30 and 50 ml/m^2.
The sodium bicarbonate solution was sprayed and projected evenly and precisely over the cotton wool surfaces.
The mortality of the acarids was noted after 15 min, 1 h, 2 h, 4 h and 24 h.
A control batch of acarids was monitored in parallel so as to determine the natural mortality of the acarids subjected to spraying with the same volume of water.
Each experimental series was repeated three times and the means of the mortality results obtained were taken.

O=C([O-])O.[Na+] [Sodium bicarbonate, sodium bicarbonate]
Survivors ([1]; immersion bath 10 g/l, after 3 weeks): 212.8
Survivors ([1]; immersion bath 10 g/l, after 6 weeks): 818.3
Survivors ([1]; immersion bath 30 g/l, after 3 weeks): 153.5
Survivors ([1]; immersion bath 30 g/l, after 6 weeks): 245.0
Survivors ([1]; immersion bath 50 g/l, after 3 weeks): 53.5
Survivors ([1]; immersion bath 50 g/l, after 6 weeks): 143.0
% mortality ([2]; 10 g bicarb/1, 30 ml/m^2 (0.3 g bicarb/m^2), contact time 15 minutes): 0.0%
% mortality ([2]; 10 g bicarb/1, 30 ml/m^2 (0.3 g bicarb/m^2), contact time 1 hour): 0.0%
% mortality ([2]; 10 g bicarb/1, 30 ml/m^2 (0.3 g bicarb/m^2), contact time 2 hours): 0.2%
% mortality ([2]; 10 g bicarb/1, 30 ml/m^2 (0.3 g bicarb/m^2), contact time 4 hours): 0.5%
% mortality ([2]; 10 g bicarb/1, 30 ml/m^2 (0.3 g bicarb/m^2), contact time 24 hours): 18.5%
% mortality ([2]; 10 g bicarb/1, 50 ml/m^2 (0.5 g bicarb/m^2), contact time 15 minutes): 0.0%
% mortality ([2]; 10 g bicarb/1, 50 ml/m^2 (0.5 g bicarb/m^2), contact time 1 hour): 0.0%
% mortality ([2]; 10 g bicarb/1, 50 ml/m^2 (0.5 g bicarb/m^2), contact time 2 hours): 2.1%
% mortality ([2]; 10 g bicarb/1, 50 ml/m^2 (0.5 g bicarb/m^2), contact time 4 hours): 20.9%
% mortality ([2]; 10 g bicarb/1, 50 ml/m^2 (0.5 g bicarb/m^2), contact time 24 hours): 35.8%
% mortality ([2]; 30 g bicarb/1, 30 ml/m^2 (0.9 g bicarb/m^2), contact time 15 minutes): 0.0%
% mortality ([2]; 30 g bicarb/1, 30 ml/m^2 (0.9 g bicarb/m^2), contact time 1 hour): 0.0%
% mortality ([2]; 30 g bicarb/1, 30 ml/m^2 (0.9 g bicarb/m^2), contact time 2 hours): 0.0%
% mortality ([2]; 30 g bicarb/1, 30 ml/m^2 (0.9 g bicarb/m^2), contact time 4 hours): 0.7%
% mortality ([2]; 30 g bicarb/1, 30 ml/m^2 (0.9 g bicarb/m^2), contact time 24 hours): 19.7%
% mortality ([2]; 30 g bicarb/1, 50 ml/m^2 (1.5 g bicarb/m^2), contact time 15 minutes): 0.0%
% mortality ([2]; 30 g bicarb/1, 50 ml/m^2 (1.5 g bicarb/m^2), contact time 1 hour): 0.0%
% mortality ([2]; 30 g bicarb/1, 50 ml/m^2 (1.5 g bicarb/m^2), contact time 2 hours): 3.4%
% mortality ([2]; 30 g bicarb/1, 50 ml/m^2 (1.5 g bicarb/m^2), contact time 4 hours): 25.1%
% mortality ([2]; 30 g bicarb/1, 50 ml/m^2 (1.5 g bicarb/m^2), contact time 24 hours): 39.9%
% mortality ([2]; 50 g bicarb/1, 30 ml/m^2 (1.5 g bicarb/m^2), contact time 15 minutes): 0.0%
% mortality ([2]; 50 g bicarb/1, 30 ml/m^2 (1.5 g bicarb/m^2), contact time 1 hour): 0.0%
% mortality ([2]; 50 g bicarb/1, 30 ml/m^2 (1.5 g bicarb/m^2), contact time 2 hours): 0.0%
% mortality ([2]; 50 g bicarb/1, 30 ml/m^2 (1.5 g bicarb/m^2), contact time 4 hours): 5.2%
% mortality ([2]; 50 g bicarb/1, 30 ml/m^2 (1.5 g bicarb/m^2), contact time 24 hours): 88.0%
% mortality ([2]; 50 g bicarb/1, 50 ml/m^2 (2.5 g bicarb/m^2), contact time 15 minutes): 0.0%
% mortality ([2]; 50 g bicarb/1, 50 ml/m^2 (2.5 g bicarb/m^2), contact time 1 hour): 0.0%
% mortality ([2]; 50 g bicarb/1, 50 ml/m^2 (2.5 g bicarb/m^2), contact time 2 hours): 2.8%
% mortality ([2]; 50 g bicarb/1, 50 ml/m^2 (2.5 g bicarb/m^2), contact time 4 hours): 58.9%
% mortality ([2]; 50 g bicarb/1, 50 ml/m^2 (2.5 g bicarb/m^2), contact time 24 hours): 95.7%
